Source: patent publication US11504364B2, “Inhibitors of fibroblast activation protein” (Praxis Biotech LLC, priority 2018, dated 2022)
Read-outs that look alike come from different tables or passages of the source.

Assays:
[1] = target: T1, recombinant human DPP9 (rhDPP9) (Homo sapiens (Human), UniProt Q86TI2); test: Inhibition of DPP9 activity, 10 ng rhDPP9, H-Gly-Pro-AMC; type: biochemical; settings: Table 3B
[2] = target: T1, recombinant human DPP9 (rhDPP9); test: DPP9 enzymatic activity assay; type: biochemical; settings: Table 3A
[3] = system: human AML cell line MV4-11; test: Cytotoxicity assay in human leukemia cell lines (Cell-Titer Glo)
[4] = target: circulating FAPα from hamster plasma (Mesocricetus auratus, UniProt A0ABM2XF29); test: Ex vivo inhibition of circulating FAPα activity in hamster plasma (PRXS-AMC); type: biochemical, Golden Syrian hamster; settings: PRXS-AMC substrate
Method: Male Golden Syrian hamsters were provided by National Laboratory Animal Center (NLAC) in Taiwan. The animals were maintained in a hygienic environment under controlled temperature (20-24° C.) and humidity (50%-80%) with 12 hours light/dark cycles. Free access to standard lab diet [MFG (Oriental Yeast Co., Ltd. Japan)] and autoclaved tap water were granted. All aspects of this work including housing, experimentation and disposal of animals were performed in general accordance with the “Guide for the Care and Use of Laboratory Animals: Eighth Edition” (National Academies Press, Washington, D.C., 2011). In addition, the animal care and use protocol was reviewed and approved by the IACUC at Pharmacology Discovery Services Taiwan, Ltd. Immediately after the sacrifice of hamsters, blood samples were collected via terminal cardiac puncture in tubes coated with EDTA-K2, mixed gently, then kept on ice and centrifuged at 2,500×g for 15 minutes at 4° C. After plasma separation, samples were stored at −80° C. in aliquots of […]. To assay exemplary compounds in hamster plasma, a similar protocol as described for human plasma was performed diluting thawed plasma 1:2 in assay buffer. […] AMC release was detected measuring fluorescence at an excitation/emission wavelength of 380/460 nm using a Multifunction Microplate Reader. […]

[5] = target: recombinant human DPPIV (rhDPPIV) (Homo sapiens (Human), UniProt P27487); test: DPPIV enzymatic activity assay; type: biochemical; settings: Table 3B
[6] = target: recombinant human FAPα (rhFAPα) (Homo sapiens (Human), UniProt Q12884); test: FAPα enzymatic exopeptidase (dipeptidase) activity assay, Z-Gly-Pro-AMC; type: biochemical; settings: for inhibition at 1 µM / rhFAPα (% exo inh @ 1 μM): 1 μM test compound, exopeptidase; for inhibition at 1 µM: read-out: rhFAPα (% exo inh @ 1 μM)
[7] = target: recombinant human PREP (rhPREP) (Homo sapiens (Human), UniProt P48147); test: PREP enzymatic activity assay; type: biochemical; settings: Table 3B
[8] = target: recombinant mouse DPPIV (rmDPPIV) (Mus musculus (Mouse), UniProt P28843); test: DPPIV enzymatic activity assay; type: biochemical; settings: Table 3A
[9] = target: recombinant mouse FAPα (rmFAPα) (Mus musculus (Mouse), UniProt P97321); test: FAPα enzymatic exopeptidase (dipeptidase) activity assay, Z-Gly-Pro-AMC; type: biochemical; settings: 1 μM test compound
[10] = target: recombinant mouse PREP (rmPREP) (Mus musculus (Mouse), UniProt Q9QUR6); test: PREP enzymatic activity assay; type: biochemical; settings: Table 3A
[11] = upon standing in pH 7.8; cyclization; cited from earlier work

T1 sequence (Q86TI2 whole entry): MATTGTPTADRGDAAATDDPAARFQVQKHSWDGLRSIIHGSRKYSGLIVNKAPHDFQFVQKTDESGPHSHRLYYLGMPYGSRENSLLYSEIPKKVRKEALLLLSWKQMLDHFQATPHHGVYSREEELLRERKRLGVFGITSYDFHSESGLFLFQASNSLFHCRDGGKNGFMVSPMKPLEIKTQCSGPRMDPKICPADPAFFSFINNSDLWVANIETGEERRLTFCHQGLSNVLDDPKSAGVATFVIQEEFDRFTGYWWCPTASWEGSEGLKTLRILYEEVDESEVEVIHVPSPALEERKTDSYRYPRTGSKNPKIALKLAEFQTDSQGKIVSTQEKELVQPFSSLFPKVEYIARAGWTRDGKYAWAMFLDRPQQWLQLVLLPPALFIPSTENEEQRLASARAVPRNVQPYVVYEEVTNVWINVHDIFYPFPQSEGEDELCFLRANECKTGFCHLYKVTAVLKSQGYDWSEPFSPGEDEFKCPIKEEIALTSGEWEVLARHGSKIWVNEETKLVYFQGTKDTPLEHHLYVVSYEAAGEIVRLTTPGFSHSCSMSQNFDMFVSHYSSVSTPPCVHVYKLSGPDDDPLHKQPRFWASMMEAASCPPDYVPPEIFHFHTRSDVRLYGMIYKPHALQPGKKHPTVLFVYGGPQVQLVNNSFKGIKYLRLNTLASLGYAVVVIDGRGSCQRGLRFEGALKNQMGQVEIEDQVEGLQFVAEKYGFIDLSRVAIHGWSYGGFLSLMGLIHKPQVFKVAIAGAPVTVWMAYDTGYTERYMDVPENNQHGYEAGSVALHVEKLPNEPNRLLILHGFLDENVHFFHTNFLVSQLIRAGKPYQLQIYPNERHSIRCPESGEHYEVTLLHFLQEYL
Sequence of recombinant human FAPα (rhFAPα) (Q12884 whole entry): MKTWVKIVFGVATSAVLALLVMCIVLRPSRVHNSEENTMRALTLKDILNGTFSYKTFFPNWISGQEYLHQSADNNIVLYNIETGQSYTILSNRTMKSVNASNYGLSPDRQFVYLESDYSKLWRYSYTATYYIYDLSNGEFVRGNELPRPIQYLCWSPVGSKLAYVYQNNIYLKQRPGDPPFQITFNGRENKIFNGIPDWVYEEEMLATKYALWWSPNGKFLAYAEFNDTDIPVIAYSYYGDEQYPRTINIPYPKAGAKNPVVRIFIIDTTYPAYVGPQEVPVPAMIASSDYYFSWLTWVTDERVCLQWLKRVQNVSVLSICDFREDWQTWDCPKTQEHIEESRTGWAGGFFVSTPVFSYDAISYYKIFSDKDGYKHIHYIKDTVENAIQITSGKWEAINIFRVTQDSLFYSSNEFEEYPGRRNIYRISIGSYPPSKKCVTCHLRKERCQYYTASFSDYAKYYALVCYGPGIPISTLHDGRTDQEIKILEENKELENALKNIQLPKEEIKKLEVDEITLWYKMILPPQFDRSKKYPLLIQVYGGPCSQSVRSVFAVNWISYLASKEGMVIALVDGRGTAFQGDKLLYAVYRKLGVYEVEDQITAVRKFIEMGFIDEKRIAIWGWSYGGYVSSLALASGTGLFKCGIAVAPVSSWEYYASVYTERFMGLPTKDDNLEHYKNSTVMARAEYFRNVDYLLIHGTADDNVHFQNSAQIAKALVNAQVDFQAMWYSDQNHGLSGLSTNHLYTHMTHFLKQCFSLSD
Sequence of recombinant human PREP (rhPREP) (P48147 whole entry): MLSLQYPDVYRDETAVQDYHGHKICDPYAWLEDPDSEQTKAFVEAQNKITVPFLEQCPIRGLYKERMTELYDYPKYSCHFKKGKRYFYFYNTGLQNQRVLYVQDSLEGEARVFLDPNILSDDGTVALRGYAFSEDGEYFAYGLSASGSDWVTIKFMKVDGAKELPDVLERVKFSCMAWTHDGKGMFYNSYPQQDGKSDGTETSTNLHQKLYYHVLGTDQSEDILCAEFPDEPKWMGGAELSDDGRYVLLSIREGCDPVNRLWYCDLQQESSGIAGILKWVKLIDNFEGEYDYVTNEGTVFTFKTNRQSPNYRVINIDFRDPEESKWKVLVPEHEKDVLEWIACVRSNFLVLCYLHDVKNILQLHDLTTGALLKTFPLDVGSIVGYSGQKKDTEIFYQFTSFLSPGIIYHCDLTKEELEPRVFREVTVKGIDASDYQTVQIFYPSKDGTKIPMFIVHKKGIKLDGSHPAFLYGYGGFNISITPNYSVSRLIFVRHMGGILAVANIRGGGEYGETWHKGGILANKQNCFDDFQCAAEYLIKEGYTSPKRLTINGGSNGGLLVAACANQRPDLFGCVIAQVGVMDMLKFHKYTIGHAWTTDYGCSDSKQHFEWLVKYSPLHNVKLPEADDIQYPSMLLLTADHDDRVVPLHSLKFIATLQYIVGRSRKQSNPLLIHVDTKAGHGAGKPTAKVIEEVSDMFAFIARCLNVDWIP
Sequence of recombinant human DPPIV (rhDPPIV) (P27487 whole entry): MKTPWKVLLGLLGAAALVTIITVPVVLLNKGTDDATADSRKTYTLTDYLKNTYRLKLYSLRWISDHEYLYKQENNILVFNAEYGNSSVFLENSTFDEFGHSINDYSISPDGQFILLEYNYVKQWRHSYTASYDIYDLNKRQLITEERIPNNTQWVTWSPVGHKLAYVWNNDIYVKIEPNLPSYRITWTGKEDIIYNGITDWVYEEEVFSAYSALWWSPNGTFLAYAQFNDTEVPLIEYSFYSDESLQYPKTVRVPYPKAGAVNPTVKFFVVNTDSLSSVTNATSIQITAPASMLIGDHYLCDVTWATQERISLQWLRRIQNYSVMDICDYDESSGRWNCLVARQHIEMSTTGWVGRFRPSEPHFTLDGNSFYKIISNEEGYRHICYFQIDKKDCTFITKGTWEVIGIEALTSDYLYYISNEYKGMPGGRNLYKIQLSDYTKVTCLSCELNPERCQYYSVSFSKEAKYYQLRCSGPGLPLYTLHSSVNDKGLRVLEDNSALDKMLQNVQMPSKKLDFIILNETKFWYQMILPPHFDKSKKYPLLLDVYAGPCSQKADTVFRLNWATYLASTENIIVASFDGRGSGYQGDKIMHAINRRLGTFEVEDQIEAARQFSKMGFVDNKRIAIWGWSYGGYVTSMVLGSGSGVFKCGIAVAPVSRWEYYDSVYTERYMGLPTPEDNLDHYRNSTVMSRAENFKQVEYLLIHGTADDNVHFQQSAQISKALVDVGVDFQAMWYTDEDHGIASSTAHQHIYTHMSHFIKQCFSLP
Sequence of recombinant mouse DPPIV (rmDPPIV) (P28843 whole entry): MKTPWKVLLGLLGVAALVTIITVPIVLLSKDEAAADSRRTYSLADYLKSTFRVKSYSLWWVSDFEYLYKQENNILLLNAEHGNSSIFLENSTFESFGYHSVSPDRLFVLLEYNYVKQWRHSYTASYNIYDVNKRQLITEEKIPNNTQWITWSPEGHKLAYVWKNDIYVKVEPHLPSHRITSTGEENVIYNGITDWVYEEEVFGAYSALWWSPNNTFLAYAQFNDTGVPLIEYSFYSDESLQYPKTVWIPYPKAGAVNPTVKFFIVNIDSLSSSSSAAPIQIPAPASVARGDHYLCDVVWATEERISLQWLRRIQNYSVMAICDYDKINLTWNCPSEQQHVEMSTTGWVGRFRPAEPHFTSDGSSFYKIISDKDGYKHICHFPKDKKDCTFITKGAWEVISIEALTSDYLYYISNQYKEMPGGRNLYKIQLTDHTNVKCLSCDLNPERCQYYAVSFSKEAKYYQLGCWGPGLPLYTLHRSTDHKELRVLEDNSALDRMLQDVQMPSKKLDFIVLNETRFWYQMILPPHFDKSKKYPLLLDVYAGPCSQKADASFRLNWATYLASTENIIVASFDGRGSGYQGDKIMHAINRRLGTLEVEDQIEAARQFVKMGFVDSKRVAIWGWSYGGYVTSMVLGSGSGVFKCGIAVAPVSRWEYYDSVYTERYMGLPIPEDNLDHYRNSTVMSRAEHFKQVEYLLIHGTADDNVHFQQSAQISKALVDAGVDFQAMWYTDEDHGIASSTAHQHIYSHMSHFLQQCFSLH
Sequence of circulating FAPα from hamster plasma (A0ABM2XF29 1-761): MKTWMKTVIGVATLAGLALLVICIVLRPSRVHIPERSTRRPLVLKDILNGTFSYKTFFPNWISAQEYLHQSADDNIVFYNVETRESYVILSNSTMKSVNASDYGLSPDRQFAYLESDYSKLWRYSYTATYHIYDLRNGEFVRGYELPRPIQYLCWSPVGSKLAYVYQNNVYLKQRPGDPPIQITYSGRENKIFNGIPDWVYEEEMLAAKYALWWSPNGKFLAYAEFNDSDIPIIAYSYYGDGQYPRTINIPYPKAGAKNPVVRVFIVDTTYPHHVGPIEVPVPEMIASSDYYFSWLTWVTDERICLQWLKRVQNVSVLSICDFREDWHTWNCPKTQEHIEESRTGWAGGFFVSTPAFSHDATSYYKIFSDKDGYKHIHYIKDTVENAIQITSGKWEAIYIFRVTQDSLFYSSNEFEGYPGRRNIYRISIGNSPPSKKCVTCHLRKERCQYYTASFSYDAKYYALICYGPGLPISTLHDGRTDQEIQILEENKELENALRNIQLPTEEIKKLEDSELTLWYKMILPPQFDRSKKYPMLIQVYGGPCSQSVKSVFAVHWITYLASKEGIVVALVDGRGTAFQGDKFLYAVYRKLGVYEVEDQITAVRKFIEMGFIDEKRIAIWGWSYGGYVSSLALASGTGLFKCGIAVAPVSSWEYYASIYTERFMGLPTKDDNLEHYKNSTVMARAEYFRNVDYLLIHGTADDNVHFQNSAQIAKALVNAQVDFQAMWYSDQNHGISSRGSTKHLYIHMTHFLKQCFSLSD

SMILES | IC50 [1] | IC50 [5] | IC50 [6] | inhibition at 1 µM ([6]; Table 3B) | IC50 [7] | also measured
N#C[C@@H]1CC(F)(F)CN1C(=O)CNC(=O)c1ccnc2ccc(-c3ccc(Cl)cc3)cc12 [Compound 2, (S)-6-(4-chlorophenyl)-N-(2-(2-cyano-4,4-difluoropyrrolidin-1-yl)-2-oxoethyl)quinoline-4-carboxamide] | < 1 µM |  |  |  |  | IC50 [2]: < 1 µM; IC50 ([3]; Homo sapiens, MV4-11, 48 h, read-out: MV4-11 viability IC50, μM): 3 to 10 µM; IC50 [4]: < 1 µM
C[C@@H](NC(=O)c1ccncc1-c1ccccc1)C(=O)N1CC(F)(F)C[C@H]1C#N [Compound 126] | > 10 µM | > 10 µM | > 10 µM | < 25% | > 10 µM | 
C[C@H](NC(=O)c1ccncc1-c1ccccc1)C(=O)N1CC(F)(F)C[C@H]1C#N [Compound 127] | > 10 µM | > 10 µM | > 10 µM | < 25% | > 10 µM | 
N#C[C@@H]1CC(F)(F)CN1C(=O)CNC(=O)c1ccnc2ccccc12 [Ref. Comp.] |  |  |  |  |  | IC50 [8]: > 10 µM; rhFAPα (% exo inh @ 1 μM) [6]: +++ (+++ refers to > 50% inhibition at 1 μM test compound); rhFAPα (% exo inh @ 1 μM) ([6]; Table 3B): +++ (+++ refers to > 50% inhibition at 1 μM test compound); rmFAPα (% exo inh @ 1 μM) [9]: +++ (+++ refers to > 50% inhibition at 1 μM test compound); IC50 [10]: > 10 µM
CC(C)[C@H](N)C(=O)N1CCC[C@H]1B(O)O [Val-boroPro, reference compound] |  |  |  |  |  | IC50 ([3]; read-out: MV4-11 viability IC50, 48 hours post-treatment, Cell-Titer Glo): < 3 µM; stability of protease inhibitory activity [11]: rapidly loses protease inhibitory activity
